Measurements published in patent publication US11739068B2, “Polymorphs of N-[(3-fluoro-4-methoxypyridin-2-yl)methyl]-3-(methoxymethyl)-1-({4-[(2-oxopyridin-1-yl)methyl]phenyl}methyl)pyrazole-4-carboxamide and salts thereof” (KALVISTA PHARMACEUTICALS LIMITED, priority 2016, dated 2023).

Legend:
Assay type in all cases: physicochemical
[1] = Visual aqueous solubility
Protocol: Form 1 (10 mg) was weighed into a glass vial and water was added in 100 μL portions up to 3 mL then 1 mL portions thereafter. Solubility was assessed visually following a brief period of equilibration.
Form 18 (10 mg) was weighed into a glass vial and water was added in 100 μL portions up to 3 mL then 1 mL portions thereafter. Solubility was assessed visually following a brief period of equilibration.
Form 8 (10 mg) was weighed into a glass vial and water was added in 100 μL portions up to 3 mL then 1 mL portions thereafter. Solubility was assessed visually following a brief period of equilibration.
Form 15 (10 mg) was weighed into a glass vial and water was added in 100 μL portions up to 3 mL then 1 mL portions thereafter. Solubility was assessed visually following a brief period of equilibration.
Form 16 (10 mg) was weighed into a glass vial and water was added in 100 μL portions up to 3 mL then 1 mL portions thereafter. Solubility was assessed visually following a brief period of equilibration.

[2] = Gravimetric Vapour Sorption (GVS)
Protocol: Gravimetric Vapour Sorption (GVS) data were collected using the following method: Approximately 10 mg of sample was placed into a wire-mesh vapour sorption balance pan and loaded into an ‘IgaSorp’ vapour sorption balance (Hiden Analytical Instruments). The sample was then dried by maintaining a 0% humidity environment until no further weight change was recorded. Subsequently, the sample was then subjected to a ramping profile from 0-90% RH at 10% RH increments, maintaining the sample at each step until equilibration had been attained (99% step completion). Upon reaching equilibration, the % RH within the apparatus was ramped to the next step and the equilibration procedure repeated. After completion of the sorption cycle, the sample was then dried using the same procedure. The weight change during the sorption/desorption cycles were then monitored, allowing for the hygroscopic nature of the sample to be determined.

[3] = Slurry studies; conditions: 72 hrs; for XRPD of solid after slurry versus starting form: 90/10 IPA/water, ambient temperature
Protocol: Form 1 (20 mg) was suspended in 90/10 IPA/water (200 μL or […]) and shaken at ambient temperature for 72 hrs. The supernatant was evaporated rather than filtered due to the small volume and the resulting solid was examined by XRPD (FIG. 6).
The supernatant was evaporated rather than filtered due to the small volume and the resulting solid was examined by XRPD (FIG. 28).
The supernatant was evaporated rather than filtered due to the small volume and the resulting solid was examined by XRPD (FIG. 34).
The supernatant was evaporated rather than filtered due to the small volume and the resulting solid was examined by XRPD (FIG. 40).

| %-Wt (dry basis) ([2]; adsorption, about 0 %-RH) | %-Wt (dry basis) ([2]; adsorption, about 10 %-RH) | %-Wt (dry basis) ([2]; adsorption, about 20 %-RH) | %-Wt (dry basis) ([2]; adsorption, about 30 %-RH) | %-Wt (dry basis) ([2]; adsorption, about 40 %-RH) | %-Wt (dry basis) ([2]; adsorption, about 50 %-RH) | %-Wt (dry basis) ([2]; adsorption, about 60 %-RH) | %-Wt (dry basis) ([2]; adsorption, about 70 %-RH) | %-Wt (dry basis) ([2]; adsorption, about 80 %-RH) | %-Wt (dry basis) ([2]; adsorption, about 90 %-RH) | %-Wt (dry basis) ([2]; desorption, about 0 %-RH) | %-Wt (dry basis) ([2]; desorption, about 5 %-RH) | %-Wt (dry basis) ([2]; desorption, about 15 %-RH) | %-Wt (dry basis) ([2]; desorption, about 25 %-RH) | %-Wt (dry basis) ([2]; desorption, about 35 %-RH) | %-Wt (dry basis) ([2]; desorption, about 45 %-RH) | %-Wt (dry basis) ([2]; desorption, about 55 %-RH) | %-Wt (dry basis) ([2]; desorption, about 65 %-RH) | %-Wt (dry basis) ([2]; desorption, about 75 %-RH) | %-Wt (dry basis) ([2]; desorption, about 85 %-RH) | Compound | also measured |
| --- | --- | --- | --- | --- | --- | --- | --- | --- | --- | --- | --- | --- | --- | --- | --- | --- | --- | --- | --- | --- | --- |
| 0.03946% | 0.4404% | 0.6163% | 0.7771% | 0.6383% | 0.8735% | 1.214% | 2.0577% | 3.99% | 14.16% | 0.000552% | 0.07837% | 0.2289% | 0.3947% | 0.2459% | 0.5639% | 0.9496% | 1.643% | 3.436% | 6.295% | COCc1nn(Cc2ccc(Cn3ccccc3=O)cc2)cc1C(=O)NCc1nccc(OC)c1F.O=S(=O)(O)O [Form 8, N-[(3-fluoro-4-methoxypyridin-2-yl)methyl]-3-(methoxymethyl)-1-({4-[(2-oxopyridin-1-yl)methyl]phenyl}methyl)pyrazole-4-carboxamide sulfate] | Aqueous solubility (in words) [1]: excellent aqueous solubility; solubility ([1]; water, thermodynamic from solid): ~100 mg/mL; Increase in water content by GVS (hygroscopicity, in words) ([2]; up to 70% relative humidity): only a relatively gradual increase in water content; XRPD of solid after slurry versus starting form [3]: no change in the X-ray pattern |
| 0.000338% | 0.2364% | 0.3723% | 0.5037% | 0.6618% | 0.9246% | 9.109% | 9.603% | 13.9262% | 66.83% | 0.35% | 2.227% | 3.448% | 4.993% | 7.125% | 9.624% | 12.7659% | 17.34% | 24.5% | 40.16% | COCc1nn(Cc2ccc(Cn3ccccc3=O)cc2)cc1C(=O)NCc1nccc(OC)c1F.Cl [Form 18, N-[(3-fluoro-4-methoxypyridin-2-yl)methyl]-3-(methoxymethyl)-1-({4-[(2-oxopyridin-1-yl)methyl]phenyl}methyl)pyrazole-4-carboxamide hydrochloride] | XRPD of solid after slurry versus starting form [3]: different to that of Form 18 |
|  |  |  |  |  |  |  |  |  |  |  |  |  |  |  |  |  |  |  |  | N-[(3-fluoro-4-methoxypyridin-2-yl)methyl]-3-(methoxymethyl)-1-({4-[(2-oxopyridin-1-yl)methyl]phenyl}methyl)pyrazole-4-carboxamide edisylate [Form 15] | Aqueous solubility ([1]; water, assessed visually): ~100 mg/mL; Aqueous solubility, repeat using less water ([1]; water, dissolved in 0.05 mL): > 200 mg/mL; Result of water slurry ([3]; 20 mg in deionised water (200 μL)): complete dissolution of the sample; XRPD of solid after slurry versus starting form [3]: no differences in X-ray pattern |

| Compound | %-Wt (dry basis) ([2]; adsorption, about 0 %-RH) | %-Wt (dry basis) ([2]; adsorption, about 10 %-RH) | %-Wt (dry basis) ([2]; adsorption, about 20 %-RH) | %-Wt (dry basis) ([2]; adsorption, about 30 %-RH) | %-Wt (dry basis) ([2]; adsorption, about 40 %-RH) | %-Wt (dry basis) ([2]; adsorption, about 50 %-RH) | %-Wt (dry basis) ([2]; adsorption, about 60 %-RH) | %-Wt (dry basis) ([2]; adsorption, about 70 %-RH) | %-Wt (dry basis) ([2]; adsorption, about 80 %-RH) | %-Wt (dry basis) ([2]; adsorption, about 90 %-RH) | %-Wt (dry basis) ([2]; desorption, about 0 %-RH) | %-Wt (dry basis) ([2]; desorption, about 5 %-RH) | %-Wt (dry basis) ([2]; desorption, about 15 %-RH) | %-Wt (dry basis) ([2]; desorption, about 25 %-RH) | %-Wt (dry basis) ([2]; desorption, about 35 %-RH) | %-Wt (dry basis) ([2]; desorption, about 45 %-RH) | %-Wt (dry basis) ([2]; desorption, about 55 %-RH) | %-Wt (dry basis) ([2]; desorption, about 65 %-RH) | %-Wt (dry basis) ([2]; desorption, about 75 %-RH) | %-Wt (dry basis) ([2]; desorption, about 85 %-RH) | also measured |
| --- | --- | --- | --- | --- | --- | --- | --- | --- | --- | --- | --- | --- | --- | --- | --- | --- | --- | --- | --- | --- | --- |
| N-[(3-fluoro-4-methoxypyridin-2-yl)methyl]-3-(methoxymethyl)-1-({4-[(2-oxopyridin-1-yl)methyl]phenyl}methyl)pyrazole-4-carboxamide edisylate [Form 16] | 1.612% | 2.367% | 2.626% | 2.834% | 3.045% | 3.351% | 7.516% | 9.935% | 15.98% | 94.26% | 0.00047% | 2.866% | 4.495% | 6.541% | 9.564% | 12.94% | 17.21% | 23.22% | 33.16% | 57.4% |  |
